According to patent US6734193B1, “(1,2,3,4-tetrahydroquinolin-8-yl)-heptatrienoic acid derivatives having serum glucose reducing activity” (Allergan, Inc., priority 2003, dated 2004):
pEC50, pKi: −log10 of the molar value.

Tests used:
[1] = molecular target: T1, RXRα (Homo sapiens, UniProt P19793); experiment: holoreceptor transactivation assay, RXRα; type: cell-based; conditions: for pEC50: holoreceptor assay, read-out: RXR Trans. EC50 α; for RXR Trans. efficacy α (in parentheses): percentage compared to the standard compound
T1 construct: expressed in transfected cells
T1 sequence (P19793 1-462): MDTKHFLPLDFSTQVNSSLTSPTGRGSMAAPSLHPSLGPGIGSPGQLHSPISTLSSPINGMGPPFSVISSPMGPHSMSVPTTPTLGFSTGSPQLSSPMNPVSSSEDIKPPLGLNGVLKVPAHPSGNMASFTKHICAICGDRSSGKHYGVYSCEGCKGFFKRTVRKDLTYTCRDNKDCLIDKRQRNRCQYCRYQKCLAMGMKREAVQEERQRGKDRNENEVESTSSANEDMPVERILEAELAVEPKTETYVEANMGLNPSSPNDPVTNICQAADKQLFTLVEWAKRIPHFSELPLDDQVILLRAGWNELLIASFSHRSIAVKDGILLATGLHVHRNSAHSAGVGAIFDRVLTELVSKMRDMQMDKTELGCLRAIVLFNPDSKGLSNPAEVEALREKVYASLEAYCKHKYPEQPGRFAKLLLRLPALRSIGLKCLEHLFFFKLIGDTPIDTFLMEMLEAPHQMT
Source text: (§1) A holoreceptor transactivation assay and a ligand binding assay which measure the antagonist/agonist like activity of the compounds of the invention, or their ability to bind to the several retinoid receptor subtypes, respectively, are described in published PCT Application No. WO WO093/11755 (particularly on pages 30-33 and 37-41) published on Jun. 24, 1993, the specification of which is also incorporated herein by reference. A detailed experimental procedure for holoreceptor transactivations has been described by Heyman et al. Cell 68, 397-406, (1992); Allegretto et al. J. Biol. Chem. 268, 26625-26633, and Mangelsdorf et al. The Retinoids: Biology, Chemistry and Medicine, pp 319-349, Raven Press Ltd., New York, which are expressly incorporated herein by reference. The results obtained in this assay are expressed in EC50 numbers, as they are also in the chimeric receptor transactivation assay. The results of the ligand binding assay are expressed in Ki numbers. (See Cheng et al Biochemical Pharmacology Vol. 22 pp 3099-3108, expressly incorporated herein by reference.)
(§2) This standard compound is described in U.S. Pat. No. 6,114,533.
(§3) Table 1 discloses the activity of certain exemplary compounds of the invention in the above-described receptor transactivation and binding assays. Particularly, the transactivation data pertaining to activation of the RAR receptors were obtained in the chimeric assay, and the transactivation data pertaining to the activation of RXR receptors were obtained in the holoreceptor assay.

[2] = molecular target: T2, RXRβ (Homo sapiens, UniProt P28702); experiment: holoreceptor transactivation assay, RXRβ; type: cell-based; conditions: for pEC50: holoreceptor assay, read-out: RXR Trans. EC50 β; for RXR Trans. efficacy β (in parentheses): percentage compared to the standard compound
T2 construct: expressed in transfected cells
T2 sequence (P28702 1-533): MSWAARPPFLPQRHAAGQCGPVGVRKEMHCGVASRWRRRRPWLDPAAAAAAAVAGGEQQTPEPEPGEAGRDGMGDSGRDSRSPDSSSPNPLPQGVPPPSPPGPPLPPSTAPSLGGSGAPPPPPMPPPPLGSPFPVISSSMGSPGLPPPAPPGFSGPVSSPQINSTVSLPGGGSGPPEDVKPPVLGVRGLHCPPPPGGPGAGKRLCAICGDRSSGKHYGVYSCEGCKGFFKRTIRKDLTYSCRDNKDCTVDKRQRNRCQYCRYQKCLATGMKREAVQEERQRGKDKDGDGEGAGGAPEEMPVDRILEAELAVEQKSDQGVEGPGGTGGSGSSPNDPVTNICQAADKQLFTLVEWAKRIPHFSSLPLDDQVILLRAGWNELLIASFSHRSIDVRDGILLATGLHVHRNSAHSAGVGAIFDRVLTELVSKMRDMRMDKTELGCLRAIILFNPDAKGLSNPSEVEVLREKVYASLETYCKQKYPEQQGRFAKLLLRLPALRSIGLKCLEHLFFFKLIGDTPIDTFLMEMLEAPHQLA
Source text: as §1, §2, §3

[3] = molecular target: T3, RXRγ (Homo sapiens, UniProt P48443); experiment: holoreceptor transactivation assay, RXRγ; type: cell-based; conditions: for pEC50: holoreceptor assay, read-out: RXR Trans. EC50 γ; for RXR Trans. efficacy γ (in parentheses): percentage compared to the standard compound
T3 construct: expressed in transfected cells
T3 sequence (P48443 1-463): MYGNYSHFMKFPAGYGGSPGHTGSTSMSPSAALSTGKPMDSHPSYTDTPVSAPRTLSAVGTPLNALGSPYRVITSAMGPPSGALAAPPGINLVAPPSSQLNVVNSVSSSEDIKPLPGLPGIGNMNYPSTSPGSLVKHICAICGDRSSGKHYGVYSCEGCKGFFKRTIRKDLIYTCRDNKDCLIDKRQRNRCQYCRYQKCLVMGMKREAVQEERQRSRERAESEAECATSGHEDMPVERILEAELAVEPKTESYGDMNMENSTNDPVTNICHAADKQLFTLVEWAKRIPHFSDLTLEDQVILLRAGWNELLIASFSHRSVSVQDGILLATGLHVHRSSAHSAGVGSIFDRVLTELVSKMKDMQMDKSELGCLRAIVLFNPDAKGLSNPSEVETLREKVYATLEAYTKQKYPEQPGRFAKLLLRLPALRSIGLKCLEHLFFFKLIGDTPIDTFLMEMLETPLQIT
Source text: as §1, §2, §3

[4] = molecular target: T4, RARα (Homo sapiens, UniProt P10276); experiment: ligand binding assay, RARα; conditions: read-out: RAR Bind. Ki α
T4 sequence (P10276 1-462): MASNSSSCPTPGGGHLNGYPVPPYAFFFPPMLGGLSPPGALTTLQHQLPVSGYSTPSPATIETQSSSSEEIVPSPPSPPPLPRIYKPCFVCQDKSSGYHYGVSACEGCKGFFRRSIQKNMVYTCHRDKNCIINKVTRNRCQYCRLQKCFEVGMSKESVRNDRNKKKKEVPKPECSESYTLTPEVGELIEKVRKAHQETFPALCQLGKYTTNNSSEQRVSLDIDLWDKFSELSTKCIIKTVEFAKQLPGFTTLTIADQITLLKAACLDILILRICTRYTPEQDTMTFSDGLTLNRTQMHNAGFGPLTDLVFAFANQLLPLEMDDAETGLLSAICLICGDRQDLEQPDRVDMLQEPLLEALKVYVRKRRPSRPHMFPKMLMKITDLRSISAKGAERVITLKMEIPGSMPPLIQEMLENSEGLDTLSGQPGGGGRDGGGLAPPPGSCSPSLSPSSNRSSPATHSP
Source text: as §1

[5] = molecular target: T5, RARβ (Homo sapiens, UniProt P10826); experiment: ligand binding assay, RARβ; conditions: read-out: RAR Bind. Ki β
T5 sequence (P10826 1-455): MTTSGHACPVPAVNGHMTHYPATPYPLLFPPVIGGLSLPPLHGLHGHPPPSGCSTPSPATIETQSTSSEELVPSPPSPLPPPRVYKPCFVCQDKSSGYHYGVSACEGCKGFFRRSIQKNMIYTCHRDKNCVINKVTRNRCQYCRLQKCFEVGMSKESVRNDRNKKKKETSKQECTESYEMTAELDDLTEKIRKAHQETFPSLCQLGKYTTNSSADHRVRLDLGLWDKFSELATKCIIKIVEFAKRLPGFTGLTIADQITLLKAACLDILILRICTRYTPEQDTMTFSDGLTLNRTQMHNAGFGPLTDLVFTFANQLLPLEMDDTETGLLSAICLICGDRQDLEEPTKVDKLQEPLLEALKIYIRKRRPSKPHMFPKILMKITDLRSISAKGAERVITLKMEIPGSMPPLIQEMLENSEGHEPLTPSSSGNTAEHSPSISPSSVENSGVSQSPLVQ
Source text: as §1

[6] = molecular target: T6, RARγ (Homo sapiens, UniProt P13631); experiment: ligand binding assay, RARγ; conditions: read-out: RAR Bind. Ki γ
T6 sequence (P13631 1-454): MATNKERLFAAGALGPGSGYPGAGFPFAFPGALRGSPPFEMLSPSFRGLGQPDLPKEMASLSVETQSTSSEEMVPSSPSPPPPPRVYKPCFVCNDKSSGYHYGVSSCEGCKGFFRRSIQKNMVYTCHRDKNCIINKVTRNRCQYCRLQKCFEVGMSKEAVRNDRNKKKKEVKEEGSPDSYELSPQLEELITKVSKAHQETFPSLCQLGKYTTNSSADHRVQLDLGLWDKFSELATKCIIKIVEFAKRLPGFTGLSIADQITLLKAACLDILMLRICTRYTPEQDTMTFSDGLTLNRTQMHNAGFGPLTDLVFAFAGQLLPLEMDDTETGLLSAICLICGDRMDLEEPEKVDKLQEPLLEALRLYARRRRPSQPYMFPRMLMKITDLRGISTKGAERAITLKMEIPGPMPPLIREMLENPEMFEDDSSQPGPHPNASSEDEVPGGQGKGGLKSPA
Source text: as §1

[7] = molecular target: T1, RXRα; experiment: ligand binding assay, RXRα; conditions: read-out: RXR Bind Ki α
Source text: as §1

[8] = molecular target: T2, RXRβ; experiment: ligand binding assay, RXRβ; conditions: read-out: RXR Bind Ki β
Source text: as §1

[9] = molecular target: T3, RXRγ; experiment: ligand binding assay, RXRγ; conditions: read-out: RXR Bind Ki γ
Source text: as §1

[10] = test system: female diabetic db/db mice; experiment: serum glucose, triglyceride and thyroxine levels in db/db mice; conditions: for Glucosc Day 0 / Triglycerides Day 0: Day 0 (pre-treatment)
Experimental: An assay described below tests the effect of compounds of the invention on serum glucose, tryglyceride and thyroxine levels in female 9-10 weeks old db/db mice.
Female diabetic db/db (9-10 weeks old) mice were maintained on standard laboratory food and treated by oral gavage with vehicle (corn oil), standard compound (2E,4E,1′S,2′S)-3-methyl-5-[2′-methyl-2′-(5,5,8,8-tetramethyl-5,6,7,8-tetrahydro-naphthalen-2-yl)-cyclopropyl]-penta-2,4-dienoic acid (5 mg/kg) or the test compound (5-100 mg/kg, as described in Table 2) daily for seven days at 8:00 AM. Blood samples (70 μl) were taken by orbital bleeding at 11:00 AM on day 0 (pre-treatment), day 3, and day 6. On day 7, a blood sample (700 μl) was taken at 11:00 AM and the animals were sacrificed. Glucose, triglyceride and thyroxine (T4) levels were determined on a Boehringer Manheim Hatachi Clinical Chemistry Analyzer using standard protocols provided by the manufacturer and reagents that were supplied in commercially available kits (glucose and T4: Boehringer Manheim; triglycerides: Roche Diagnostics). A NUMBER OF animals were treated in each group.

| pEC50 [1] | RXR Trans. efficacy α (in parentheses) [1] [%] | pEC50 [2] | RXR Trans. efficacy β (in parentheses) [2] [%] | pEC50 [3] | RXR Trans. efficacy γ (in parentheses) [3] [%] | pKi [4] | pKi [5] | pKi [6] | pKi [7] | pKi [8] | SMILES | other results |
| --- | --- | --- | --- | --- | --- | --- | --- | --- | --- | --- | --- | --- |
| 10.00 | 74 | 9.30 | 77 | 10.00 | 75 | 6.17 | 6.08 | 5.60 | 9.00 | 7.96 | CCN1CCC(C)(C)c2cc(C(C)C)cc(\C(C)=C(F)/C=C/C(C)=C/C(=O)O)c21 [Compound 27, (2E,4E,6E)-7-(1-Ethyl-6-isopropyl-4,4-dimethyl-1,2,3,4-tetrahydro-quinolin-8-yl)-6-fluoro-3-methyl-octa-2,4,6-trienoic acid] | – |
| 9.52 | 86 | 9.40 | 66 | 9.52 | 75 | 6.15 | 6.37 | 5.70 | 8.70 | 7.68 | CC/C(=C(F)/C=C/C(C)=C/C(=O)O)c1cc(C(C)C)cc2c1N(CC)CCC2(C)C [Compound 28, (2E,4E,6E)-7-(1-Ethyl-6-isopropyl-4,4-dimethyl-1,2,3,4-tetrahydro-quinolin-8-yl)-6-fluoro-3-methyl-nona-2,4,6-trienoic acid] | pKi [9]: 7.68 |
| 8.70 | 32 | 8.22 | 27 | 8.70 | 10 | 6.32 | 6.35 | 5.85 | 9.00 | 7.82 | CCCN1CCC(C)(C)c2cc(C(C)C)cc(\C(C)=C(F)/C=C/C(C)=C/C(=O)O)c21 [Compound 29, (2E,4E,6E)-6-Fluoro-7-(6-isopropyl-4,4-dimethyl-1-propyl-1,2,3,4-tetrahydro-quinolin-8-yl)-3-methyl-octa-2,4,6-trienoic acid] | Glucosc Day 0 ([10]; 50 mg/kg oral gavage daily): 523 ± 84 mg/dL; Triglycerides Day 0 ([10]; 50 mg/kg oral gavage daily): 316 ± 339 mg/dL; Glucosc Day 3, 3h ([10]; 50 mg/kg oral gavage daily): 476 ± 96 mg/dL; Triglycerides Day 3, 3h ([10]; 50 mg/kg oral gavage daily): 326 ± 111 mg/dL; Glucosc Day 6, 3h ([10]; 50 mg/kg oral gavage daily): 441 ± 184 mg/dL |
| – | – | – | – | – | – | – | – | – | – | – | CC(/C=C/[C@@H]1C[C@]1(C)c1ccc2c(c1)C(C)(C)CCC2(C)C)=C\C(=O)O [Standard compound, (2E,4E,1′S,2′S)-3-methyl-5-[2′-methyl-2′-(5,5,8,8-tetramethyl-5,6,7,8-tetrahydro-naphthalen-2-yl)-cyclopropyl]-penta-2,4-dienoic acid] | Glucosc Day 0 ([10]; 4 mg/kg oral gavage daily): 524 ± 45 mg/dL; Triglycerides Day 0 ([10]; 4 mg/kg oral gavage daily): 273 ± 66 mg/dL; Glucosc Day 3, 3h ([10]; 4 mg/kg oral gavage daily): 512 ± 156 mg/dL; Triglycerides Day 3, 3h ([10]; 4 mg/kg oral gavage daily): 755 ± 464 mg/dL; Glucosc Day 6, 3h ([10]; 4 mg/kg oral gavage daily): 459 ± 148 mg/dL; T4 Day 7 ([10]; 4 mg/kg oral gavage daily, Day 7): 1.4 ± 0.5 µg/dL |
